Source: doi:10.1101/2021.01.27.428399v1 (biorxiv, 2021)

Target: T1, GluR0 (Synechocystis sp. PCC 6803, UniProt P73797)
T1 sequence (P73797 20-397): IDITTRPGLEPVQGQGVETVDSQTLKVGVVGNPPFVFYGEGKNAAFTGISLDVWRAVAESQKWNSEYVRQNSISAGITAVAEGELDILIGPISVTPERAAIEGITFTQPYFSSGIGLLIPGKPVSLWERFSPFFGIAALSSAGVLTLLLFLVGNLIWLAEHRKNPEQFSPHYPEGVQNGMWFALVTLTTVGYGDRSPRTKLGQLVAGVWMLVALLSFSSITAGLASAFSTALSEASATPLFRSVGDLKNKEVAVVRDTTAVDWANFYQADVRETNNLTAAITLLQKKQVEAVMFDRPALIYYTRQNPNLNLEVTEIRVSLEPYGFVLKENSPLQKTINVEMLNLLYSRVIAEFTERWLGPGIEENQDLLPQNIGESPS
Assay: two-electrode voltage clamp, Xenopus oocytes
Assay type: cell-based

N[C@@H](CCC(=O)O)C(=O)O [L-glutamate]
EC50: 29.9 ± 5 µM
